In patent US4486602A, “Valienamine derivatives, their production and use” (Takeda Chemical Industries, Ltd., priority 1980, dated 1984):

Biological target: maltase (porcine intestinal mucosa)
Experiment: inhibitory activity against maltase, 0.05M maltose as substrate
Assay type: biochemical
Settings: Table 2, read-out: IC50 (molar concentration required for 50% inhibition)
Method: (§1) When 0.05M maltose is used as a substrate, the inhibitory activity against maltase prepared from porcine intestinal mucosa is determined by measuring the amount of released D-glucose by use of glucose oxidase [Glucose B-Test Wako (a reagent for clinical diagnostic use for determining glucose, produced by Wako Pure Chemical Co. Japan)] to calculate the 50% inhibition concentration. The molar concentration required for 50% inhibition (IC50) of the α-glucosidase inhibitors represented by the formula [I], to inhibit activity of α-glucosidase (yeast), is shown in Table 1 and that to inhibit activity of maltase (porcine intestinal mucosa) is in Table 2.

Row | Compound | IC50 [µM]
1 | OCC1=C[C@H](NCc2ccc(Br)cc2)[C@H](O)[C@@H](O)[C@@H]1O | 75
2 | OCC1=C[C@H](NCC(O)COc2ccccc2)[C@H](O)[C@@H](O)[C@@H]1O (some centres unmarked) | 24
3 | OCC1=C[C@H](NC(CO)c2ccccc2)[C@H](O)[C@@H](O)[C@@H]1O (some centres unmarked) | 14
4 | OCC1=C[C@H](NC(CO)C(O)c2ccccc2)[C@H](O)[C@@H](O)[C@@H]1O (some centres unmarked) | 9.6
5 | OCC1=C[C@H](NCc2ccc(O)c(O)c2)[C@H](O)[C@@H](O)[C@@H]1O | 8.1
6 | OCC1=C[C@H](NCCc2ccccc2)[C@H](O)[C@@H](O)[C@@H]1O [drawing 38] | 11
7 | OCC1=C[C@H](NCCCc2ccccc2)[C@H](O)[C@@H](O)[C@@H]1O [drawing 39] | 20
8 | OCC1=C[C@H](NCCCCc2ccccc2)[C@H](O)[C@@H](O)[C@@H]1O [drawing 40] | 80
9 | OCC1=C[C@H](NCC(O)c2ccccc2)[C@H](O)[C@@H](O)[C@@H]1O (some centres unmarked) [drawing 41] | 3.2
10 | OCC1=C[C@H](NCc2ccc(O)cc2)[C@H](O)[C@@H](O)[C@@H]1O [drawing 43] | 19
11 | CC(Cc1ccccc1)N[C@H]1C=C(CO)[C@@H](O)[C@H](O)[C@H]1O (some centres unmarked) [drawing 46] | 2.4
12 | COc1ccccc1C(O)CN[C@H]1C=C(CO)[C@@H](O)[C@H](O)[C@H]1O (some centres unmarked) [drawing 47] | 3.1
13 | CC(C)=CCC/C(C)=C/CN[C@H]1C=C(CO)[C@@H](O)[C@H](O)[C@H]1O [drawing 48] | 5.2
14 | OCC1=C[C@H](NC(CO)CO)[C@H](O)[C@@H](O)[C@@H]1O [drawing 49] | 14
15 | OCC1=C[C@H](NC(CO)[C@@H](O)[C@H](O)[C@@H](O)CO)[C@H](O)[C@@H](O)[C@@H]1O (some centres unmarked) [drawing 50] | 14

Test system: α-glucoside hydrolase
Experiment: suppression of α-glucoside hydrolase function (statement in words)
Assay type: biochemical
Settings: not given

Row | Compound | action of suppressing the function of α-glucoside hydrolase
16 | N[C@H]1C=C(CO)[C@@H](O)[C@H](O)[C@H]1O [valienamine] | possesses a highly valuable action of suppressing the function of α-glucoside hydrolase

Biological target: T1, saccharase (porcine intestinal mucosa) (Sus scrofa, UniProt P56729)
T1 construct: saccharase prepared from porcine intestinal mucosa; from tissue; host or cells: porcine intestinal mucosa
T1 sequence (P56729 with tags, fused parts or gaps limits assumed): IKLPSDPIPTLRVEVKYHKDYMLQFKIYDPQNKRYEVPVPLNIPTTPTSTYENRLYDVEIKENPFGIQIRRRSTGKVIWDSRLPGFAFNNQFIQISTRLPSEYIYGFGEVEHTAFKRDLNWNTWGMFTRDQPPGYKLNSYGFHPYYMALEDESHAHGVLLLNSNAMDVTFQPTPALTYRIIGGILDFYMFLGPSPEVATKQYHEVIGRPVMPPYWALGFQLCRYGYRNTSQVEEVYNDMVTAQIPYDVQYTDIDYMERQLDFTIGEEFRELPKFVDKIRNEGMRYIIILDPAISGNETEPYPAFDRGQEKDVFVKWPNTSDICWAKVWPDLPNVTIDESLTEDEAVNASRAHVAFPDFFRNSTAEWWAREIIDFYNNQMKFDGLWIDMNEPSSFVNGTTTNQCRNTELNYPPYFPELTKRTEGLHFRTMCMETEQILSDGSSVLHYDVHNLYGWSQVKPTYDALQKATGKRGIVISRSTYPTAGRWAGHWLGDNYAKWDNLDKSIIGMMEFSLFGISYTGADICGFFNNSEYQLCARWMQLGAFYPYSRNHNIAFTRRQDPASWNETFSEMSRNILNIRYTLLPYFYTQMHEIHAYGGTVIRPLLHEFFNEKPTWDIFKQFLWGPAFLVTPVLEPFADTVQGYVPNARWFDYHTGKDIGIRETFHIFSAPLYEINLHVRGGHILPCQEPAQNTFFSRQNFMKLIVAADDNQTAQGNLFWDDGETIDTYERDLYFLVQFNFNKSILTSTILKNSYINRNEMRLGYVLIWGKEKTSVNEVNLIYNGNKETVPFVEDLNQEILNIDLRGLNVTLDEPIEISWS
T1 sequence (P56729 with tags, fused parts or gaps partner limits assumed): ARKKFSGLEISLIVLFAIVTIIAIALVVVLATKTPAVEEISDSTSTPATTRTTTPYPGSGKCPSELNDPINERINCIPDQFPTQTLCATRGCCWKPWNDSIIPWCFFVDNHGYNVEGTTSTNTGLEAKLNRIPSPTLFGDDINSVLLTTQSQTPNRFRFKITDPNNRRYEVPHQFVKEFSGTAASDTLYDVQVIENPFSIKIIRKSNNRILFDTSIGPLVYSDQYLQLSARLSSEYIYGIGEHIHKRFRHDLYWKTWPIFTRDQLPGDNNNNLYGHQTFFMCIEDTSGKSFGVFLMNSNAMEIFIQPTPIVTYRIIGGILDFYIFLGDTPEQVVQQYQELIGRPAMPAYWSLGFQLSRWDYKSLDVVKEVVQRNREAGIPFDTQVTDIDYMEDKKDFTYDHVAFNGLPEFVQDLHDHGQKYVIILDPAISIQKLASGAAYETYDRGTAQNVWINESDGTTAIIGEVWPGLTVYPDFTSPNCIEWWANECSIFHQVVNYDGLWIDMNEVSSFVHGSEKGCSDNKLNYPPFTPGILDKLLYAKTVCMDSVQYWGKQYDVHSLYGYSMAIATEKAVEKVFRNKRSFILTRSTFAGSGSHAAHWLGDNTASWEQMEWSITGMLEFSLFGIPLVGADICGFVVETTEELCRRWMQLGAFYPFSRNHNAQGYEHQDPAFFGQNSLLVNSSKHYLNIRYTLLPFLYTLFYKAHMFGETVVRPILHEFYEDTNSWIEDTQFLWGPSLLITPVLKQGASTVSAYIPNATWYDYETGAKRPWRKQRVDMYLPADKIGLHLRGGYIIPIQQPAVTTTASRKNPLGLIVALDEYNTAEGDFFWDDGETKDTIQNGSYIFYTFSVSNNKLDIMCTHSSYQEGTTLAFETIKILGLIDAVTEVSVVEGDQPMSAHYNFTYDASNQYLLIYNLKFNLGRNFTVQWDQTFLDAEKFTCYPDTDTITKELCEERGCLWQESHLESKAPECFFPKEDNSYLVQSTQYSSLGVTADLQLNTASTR
Experiment: inhibitory activity against saccharase
Assay type: biochemical
Settings: not given
Method: The inhibitory activity against saccharase prepared from porcine intestinal mucosa is determined by a similar method to that against maltase in accordance with the method described in Acta. Chem. Scand., 12, 1997-2006 (1958).

Row | Compound | IC50 [µM]
17 | OCC1=C[C@H](NC2CCCCC2O)[C@H](O)[C@@H](O)[C@@H]1O (some centres unmarked) [Example 36, N-(2-hydroxycyclohexyl)valienamine] | 0.17

Biological target: T2, α-glucosidase (yeast, type I) (Saccharomyces cerevisiae, UniProt P53341)
T2 construct: purchased Sigma Chemicals, U.S.A
T2 sequence (P53341 whole entry): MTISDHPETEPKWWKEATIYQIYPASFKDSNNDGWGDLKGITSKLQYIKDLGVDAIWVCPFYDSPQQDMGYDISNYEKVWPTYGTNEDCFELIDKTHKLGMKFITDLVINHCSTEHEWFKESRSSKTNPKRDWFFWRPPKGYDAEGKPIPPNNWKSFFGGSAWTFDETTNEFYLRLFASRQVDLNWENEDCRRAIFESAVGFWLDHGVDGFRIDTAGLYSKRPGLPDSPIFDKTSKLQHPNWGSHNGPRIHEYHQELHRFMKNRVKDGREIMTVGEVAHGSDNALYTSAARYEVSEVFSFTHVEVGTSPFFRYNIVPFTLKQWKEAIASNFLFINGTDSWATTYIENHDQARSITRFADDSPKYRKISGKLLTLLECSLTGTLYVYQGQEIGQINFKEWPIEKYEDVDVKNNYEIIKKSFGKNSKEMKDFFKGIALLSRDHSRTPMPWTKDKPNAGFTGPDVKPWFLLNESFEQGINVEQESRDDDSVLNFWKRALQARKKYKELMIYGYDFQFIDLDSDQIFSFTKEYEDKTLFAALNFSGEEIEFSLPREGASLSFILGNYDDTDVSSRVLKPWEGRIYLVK
Experiment: α-glucosidase inhibitory activity, p-nitrophenyl-α-D-glucopyranoside as substrate
Assay type: biochemical
Settings: not given
Method: The inhibitory activity of the compounds of this invention against α-glucosidase (yeast, type I, produced by Sigma Chemicals, U.S.A.), when p-nitrophenyl-α-D-glucopyranoside is used as a substrate, is determined by adding 0.5 ml of a solution of an inhibitor of this invention in 0.02M phosphate buffer (pH 6.8) and 0.25 ml of 0.01M p-nitrophenyl-α-D-glucopyranoside in the same buffer to 0.25 ml of a solution of α-glucosidase in the same buffer (0.005 mg/ml), allowing the reaction to proceed at 37° C. for 15 minutes, then adding 3 ml of 0.1M aqueous sodium carbonate solution to terminate the reaction, and measuring the absorbance of the reaction solution at 400 nm. The 50% inhibition concentration of the inhibitor is calculated from the inhibition rates (%) which are determined with inhibitory substance samples of three to five different concentrations.
as §1

Row | Compound | IC50 [µM]
18 | CC(Cc1ccccc1)N[C@H]1C=C(CO)[C@@H](O)[C@H](O)[C@H]1O (stereo partly drawn) [Example 21, N-(α-methylphenethyl)valienamine] | 0.13

Same assay, conditions: Table 1; α-glucosidase (yeast); pH 6.8, 37° C., 15 minutes; read-out: IC50 (molar concentration required for 50% inhibition)

Row | Compound | IC50 [µM]
19 | OCC1=C[C@H](NCc2ccccc2)[C@H](O)[C@@H](O)[C@@H]1O | 9.2
20 | OCC1=C[C@H](NCc2cccs2)[C@H](O)[C@@H](O)[C@@H]1O | 38
21 | OCC1=C[C@H](NCc2ccco2)[C@H](O)[C@@H](O)[C@@H]1O | 150
22 | OCC1=C[C@H](NCc2cccnc2)[C@H](O)[C@@H](O)[C@@H]1O | 56
23 | Cc1ccc(CN[C@H]2C=C(CO)[C@@H](O)[C@H](O)[C@H]2O)cc1 | 20
24 | COc1ccc(CN[C@H]2C=C(CO)[C@@H](O)[C@H](O)[C@H]2O)cc1 | 18
25 | O=C(O)c1ccc(CN[C@H]2C=C(CO)[C@@H](O)[C@H](O)[C@H]2O)cc1 | 150
26 | CC(N[C@H]1C=C(CO)[C@@H](O)[C@H](O)[C@H]1O)c1ccccc1 (some centres unmarked) | 13
27 | CC(CN[C@H]1C=C(CO)[C@@H](O)[C@H](O)[C@H]1O)c1ccccc1 (some centres unmarked) | 13
28 | OCC1=C[C@H](NCC=Cc2ccccc2)[C@H](O)[C@@H](O)[C@@H]1O | 20
29 | OCC1=C[C@H](NCCCOc2ccccc2)[C@H](O)[C@@H](O)[C@@H]1O | 1.1
30 | OCC1=C[C@H](NCCCCCc2ccccc2)[C@H](O)[C@@H](O)[C@@H]1O | 0.75
31 | OCC1=C[C@H](NCC(c2ccccc2)c2ccccc2)[C@H](O)[C@@H](O)[C@@H]1O | 0.038
32 | OCC1=C[C@H](NCC2CCCCC2)[C@H](O)[C@@H](O)[C@@H]1O | 0.38
33 | CC(C)(C)c1cc(CN[C@H]2C=C(CO)[C@@H](O)[C@H](O)[C@H]2O)cc(C(C)(C)C)c1O | 12
34 | OCC1=C[C@H](NC[C@H](O)[C@@H](O)[C@H](O)[C@H](O)CO)[C@H](O)[C@@H](O)[C@@H]1O | 110

Row | Compound | IC50 [µM]
35 | OCC1=C[C@H](NC[C@H](O)[C@@H](O)[C@@H](O)[C@H](O)CO)[C@H](O)[C@@H](O)[C@@H]1O | 160
36 | OCC1=C[C@H](NC(CO)[C@@H](O)[C@H](O)[C@H](O)CO)[C@H](O)[C@@H](O)[C@@H]1O (some centres unmarked) | 110
37 | OCC1=C[C@H](NC[C@@H](O)[C@@H](O)[C@H](O)[C@H](O)CO)[C@H](O)[C@@H](O)[C@@H]1O | 100
38 | OCC1=C[C@H](NC[C@@H](O)[C@H](O)[C@H](O)CO)[C@H](O)[C@@H](O)[C@@H]1O | 120
39 | OCC1=C[C@H](NC[C@H](O)[C@H](O)[C@H](O)CO)[C@H](O)[C@@H](O)[C@@H]1O | 90
40 | OCC1=C[C@H](NC[C@H](O)[C@@H](O)[C@H](O)CO)[C@H](O)[C@@H](O)[C@@H]1O | 110
41 | CCCCN[C@H]1C=C(CO)[C@@H](O)[C@H](O)[C@H]1O [CH2 CH2 CH2 CH3, N-n-butylvalienamine] | 21
42 | OCC1=C[C@H](NCCc2ccccc2)[C@H](O)[C@@H](O)[C@@H]1O [drawing 15] | 1.8
43 | OCC1=C[C@H](NCC(O)c2ccccc2)[C@H](O)[C@@H](O)[C@@H]1O (some centres unmarked) [drawing 16] | 1.1
44 | OCC1=C[C@H](NCCCc2ccccc2)[C@H](O)[C@@H](O)[C@@H]1O [drawing 18] | 2.2
45 | OCC1=C[C@H](NCCCCc2ccccc2)[C@H](O)[C@@H](O)[C@@H]1O [drawing 20] | 0.98
46 | OCC1=C[C@H](NCc2ccc(O)cc2)[C@H](O)[C@@H](O)[C@@H]1O [drawing 23] | 5
47 | COc1ccccc1C(O)CN[C@H]1C=C(CO)[C@@H](O)[C@H](O)[C@H]1O (some centres unmarked) [drawing 24] | 0.38
48 | CC(C)=CCC/C(C)=C/CN[C@H]1C=C(CO)[C@@H](O)[C@H](O)[C@H]1O [drawing 27] | 1.7
49 | OCC1=C[C@H](NC(CO)CO)[C@H](O)[C@@H](O)[C@@H]1O [drawing 29] | 66
50 | OCC1=C[C@H](NC(CO)[C@@H](O)[C@H](O)[C@@H](O)CO)[C@H](O)[C@@H](O)[C@@H]1O (some centres unmarked) [drawing 37] | 130
